Calls of active or inactive are those of the source. How the calls were made is not given here.
Tested on: CCRIS mutagenicity, Ames/micronucleus/aberration tests
Assay: CCRIS mutagenicity studies
[1] = Test System: MOUSE LYMPHOMA, Strain/Indicator: L5178Y (TK+/TK-), Metabolic Activation: NONE, Method: SUSPENSION/PLATE
[2] = Test System: MOUSE LYMPHOMA, Strain/Indicator: L5178Y (TK+/TK-), Metabolic Activation: RAT, LIVER, S-9, AROCLOR 1254, Method: SUSPENSION/PLATE
[3] = Test System: AMES SALMONELLA TYPHIMURIUM, Strain/Indicator: TA98, Metabolic Activation: NONE, Method: STANDARD PLATE
[4] = Test System: AMES SALMONELLA TYPHIMURIUM, Strain/Indicator: TA100, Metabolic Activation: NONE, Method: STANDARD PLATE

O=C(O)CCC(=O)OC[C@@H](NC(=O)C(Cl)Cl)[C@H](O)c1ccc([N+](=O)[O-])cc1
mutagenic call (Test System: AMES SALMONELLA TYPHIMURIUM, Strain/Indicator: TA98, Metabolic Activation: HAMSTER, LIVER, S-9, AROCLOR 1254 (10%), Method: PREINCUBATION): inactive; negative
mutagenic call (Test System: AMES SALMONELLA TYPHIMURIUM, Strain/Indicator: TA98, Metabolic Activation: NONE, Method: PREINCUBATION): inactive; negative
mutagenic call (Test System: AMES SALMONELLA TYPHIMURIUM, Strain/Indicator: TA98, Metabolic Activation: RAT, LIVER, S-9, AROCLOR 1254 (10%), Method: PREINCUBATION): inactive; negative
mutagenic call (Test System: AMES SALMONELLA TYPHIMURIUM, Strain/Indicator: TA100, Metabolic Activation: HAMSTER, LIVER, S-9, AROCLOR 1254 (10%), Method: PREINCUBATION): inactive; negative
mutagenic call (Test System: AMES SALMONELLA TYPHIMURIUM, Strain/Indicator: TA100, Metabolic Activation: NONE, Method: PREINCUBATION): inactive; negative
mutagenic call (Test System: AMES SALMONELLA TYPHIMURIUM, Strain/Indicator: TA100, Metabolic Activation: RAT, LIVER, S-9, AROCLOR 1254 (10%), Method: PREINCUBATION): inactive; negative
mutagenic call (Test System: AMES SALMONELLA TYPHIMURIUM, Strain/Indicator: TA1535, Metabolic Activation: HAMSTER, LIVER, S-9, AROCLOR 1254 (10%), Method: PREINCUBATION): inactive; negative
mutagenic call (Test System: AMES SALMONELLA TYPHIMURIUM, Strain/Indicator: TA1535, Metabolic Activation: NONE, Method: PREINCUBATION): inactive; negative
mutagenic call (Test System: AMES SALMONELLA TYPHIMURIUM, Strain/Indicator: TA1535, Metabolic Activation: RAT, LIVER, S-9, AROCLOR 1254 (10%), Method: PREINCUBATION): inactive; negative
mutagenic call (Test System: AMES SALMONELLA TYPHIMURIUM, Strain/Indicator: TA1537, Metabolic Activation: HAMSTER, LIVER, S-9, AROCLOR 1254 (10%), Method: PREINCUBATION): inactive; negative
mutagenic call (Test System: AMES SALMONELLA TYPHIMURIUM, Strain/Indicator: TA1537, Metabolic Activation: NONE, Method: PREINCUBATION): inactive; negative
mutagenic call (Test System: AMES SALMONELLA TYPHIMURIUM, Strain/Indicator: TA1537, Metabolic Activation: RAT, LIVER, S-9, AROCLOR 1254 (10%), Method: PREINCUBATION): inactive; negative
mutagenic call [1]: active; positive
mutagenic call [2]: active; positive
mutagenic call (Test System: MOUSE LYMPHOMA, Strain/Indicator: L5178Y (TK+/TK-), Metabolic Activation: RAT, LIVER, S-9, Method: SUSPENSION/PLATE): active; positive

C[Si](C)(C)O[Si](C)(C)O[Si](C)(C)C
mutagenic call (Test System: AMES SALMONELLA TYPHIMURIUM, Strain/Indicator: TA98, Metabolic Activation: HAMSTER, LIVER, S-9, AROCLOR 1254, Method: STANDARD PLATE): inactive; negative
mutagenic call [3]: inactive; negative
mutagenic call (Test System: AMES SALMONELLA TYPHIMURIUM, Strain/Indicator: TA98, Metabolic Activation: RAT, LIVER, S-9, AROCLOR 1254, Method: STANDARD PLATE): inactive; negative
mutagenic call (Test System: AMES SALMONELLA TYPHIMURIUM, Strain/Indicator: TA100, Metabolic Activation: HAMSTER, LIVER, S-9, AROCLOR 1254, Method: STANDARD PLATE): inactive; negative
mutagenic call [4]: inactive; negative
mutagenic call (Test System: AMES SALMONELLA TYPHIMURIUM, Strain/Indicator: TA100, Metabolic Activation: RAT, LIVER, S-9, AROCLOR 1254, Method: STANDARD PLATE): inactive; negative
mutagenic call (Test System: AMES SALMONELLA TYPHIMURIUM, Strain/Indicator: TA1535, Metabolic Activation: HAMSTER, LIVER, S-9, AROCLOR 1254, Method: STANDARD PLATE): inactive; negative
mutagenic call (Test System: AMES SALMONELLA TYPHIMURIUM, Strain/Indicator: TA1535, Metabolic Activation: NONE, Method: STANDARD PLATE): inactive; negative
mutagenic call (Test System: AMES SALMONELLA TYPHIMURIUM, Strain/Indicator: TA1535, Metabolic Activation: RAT, LIVER, S-9, AROCLOR 1254, Method: STANDARD PLATE): inactive; negative
mutagenic call (Test System: AMES SALMONELLA TYPHIMURIUM, Strain/Indicator: TA1537, Metabolic Activation: HAMSTER, LIVER, S-9, AROCLOR 1254, Method: STANDARD PLATE): inactive; negative
mutagenic call (Test System: AMES SALMONELLA TYPHIMURIUM, Strain/Indicator: TA1537, Metabolic Activation: NONE, Method: STANDARD PLATE): inactive; negative
mutagenic call (Test System: AMES SALMONELLA TYPHIMURIUM, Strain/Indicator: TA1537, Metabolic Activation: RAT, LIVER, S-9, AROCLOR 1254, Method: STANDARD PLATE): inactive; negative
mutagenic call (Test System: AMES SALMONELLA TYPHIMURIUM, Strain/Indicator: TA1538, Metabolic Activation: HAMSTER, LIVER, S-9, AROCLOR 1254, Method: STANDARD PLATE): inactive; negative
mutagenic call (Test System: AMES SALMONELLA TYPHIMURIUM, Strain/Indicator: TA1538, Metabolic Activation: NONE, Method: STANDARD PLATE): inactive; negative
mutagenic call (Test System: AMES SALMONELLA TYPHIMURIUM, Strain/Indicator: TA1538, Metabolic Activation: RAT, LIVER, S-9, AROCLOR 1254, Method: STANDARD PLATE): inactive; negative
mutagenic call (Test System: E. COLI, Strain/Indicator: WP2, Metabolic Activation: NONE, Method: STANDARD PLATE): inactive; negative
mutagenic call (Test System: E. COLI, Strain/Indicator: WP2, Metabolic Activation: RAT, LIVER, S-9, AROCLOR 1254, Method: STANDARD PLATE): inactive; negative
mutagenic call [1]: active; positive. reevaluation of results: positive
mutagenic call [2]: inactive; negative. reevaluation of results: negative

CNC(=O)ONC(C)=O
mutagenic call [3]: active; positive
mutagenic call (Test System: AMES SALMONELLA TYPHIMURIUM, Strain/Indicator: TA98, Metabolic Activation: RAT, LIVER, S-9, Method: STANDARD PLATE): active; positive
mutagenic call [4]: active; positive

Source: PubChem BioAssay AID1259407 (Chemical Carcinogenesis Research Information System (CCRIS), 2018)
